{"source": "ChEMBL document CHEMBL4052759", "about": "“Discovery of DS79182026: A potent orally active hepcidin production inhibitor” (Bioorg Med Chem Lett, 2017)", "key": {"[1]": {"target": "Casein kinase I isoform epsilon (Homo sapiens) (UniProt P49674)", "sequence (P49674 whole entry, looked up, canonical isoform)": "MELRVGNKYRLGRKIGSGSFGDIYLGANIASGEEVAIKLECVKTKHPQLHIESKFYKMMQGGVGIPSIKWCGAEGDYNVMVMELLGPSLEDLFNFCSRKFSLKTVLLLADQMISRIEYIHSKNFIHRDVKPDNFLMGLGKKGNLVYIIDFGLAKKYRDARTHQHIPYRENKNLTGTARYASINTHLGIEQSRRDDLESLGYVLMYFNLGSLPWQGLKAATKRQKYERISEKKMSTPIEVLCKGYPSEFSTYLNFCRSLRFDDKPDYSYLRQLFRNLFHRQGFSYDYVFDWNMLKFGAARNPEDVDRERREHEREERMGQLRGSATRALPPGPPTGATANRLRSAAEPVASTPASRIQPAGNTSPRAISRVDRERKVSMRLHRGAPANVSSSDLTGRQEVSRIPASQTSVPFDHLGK", "assay": "Inhibition of CK1-epsilon (unknown origin) at 0.49 uM relative to control"}, "[2]": {"target": "Protein kinase C delta type (Homo sapiens) (UniProt Q05655)", "sequence (Q05655 whole entry, looked up)": "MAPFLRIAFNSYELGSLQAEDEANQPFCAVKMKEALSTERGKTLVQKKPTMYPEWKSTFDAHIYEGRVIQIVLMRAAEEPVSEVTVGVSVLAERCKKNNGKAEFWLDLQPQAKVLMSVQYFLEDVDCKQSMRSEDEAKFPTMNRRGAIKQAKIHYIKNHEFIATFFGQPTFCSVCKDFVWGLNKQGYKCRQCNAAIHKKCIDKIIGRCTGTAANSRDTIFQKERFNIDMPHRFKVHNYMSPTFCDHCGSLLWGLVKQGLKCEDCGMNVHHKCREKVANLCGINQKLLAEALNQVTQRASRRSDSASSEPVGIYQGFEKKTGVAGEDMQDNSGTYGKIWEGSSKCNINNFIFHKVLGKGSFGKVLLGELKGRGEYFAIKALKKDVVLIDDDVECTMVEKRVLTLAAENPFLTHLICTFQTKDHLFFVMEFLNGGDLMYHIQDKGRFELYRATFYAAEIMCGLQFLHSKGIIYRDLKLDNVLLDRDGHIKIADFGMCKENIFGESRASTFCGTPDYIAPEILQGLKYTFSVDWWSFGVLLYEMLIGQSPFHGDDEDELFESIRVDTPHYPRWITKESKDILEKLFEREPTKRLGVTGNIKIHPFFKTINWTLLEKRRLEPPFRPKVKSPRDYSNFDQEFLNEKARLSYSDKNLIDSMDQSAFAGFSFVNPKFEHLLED", "assay": "Inhibition of PKC-delta (unknown origin) at 0.49 uM relative to control"}, "[3]": {"target": "Protein kinase C epsilon type (Homo sapiens) (UniProt Q02156)", "assay": "Inhibition of PKC-epsilon (unknown origin) at 0.49 uM relative to control"}, "[4]": {"target": "Serine/threonine-protein kinase Sgk3 (Homo sapiens) (UniProt Q96BR1)", "assay": "Inhibition of SGK3 (unknown origin) at 0.49 uM relative to control"}, "[5]": {"target": "Inhibitor of nuclear factor kappa-B kinase subunit epsilon (Homo sapiens) (UniProt Q14164)", "assay": "Inhibition of IKBKE (unknown origin) at 0.49 uM relative to control"}, "[6]": {"target": "Tyrosine-protein kinase Fer (Homo sapiens) (UniProt P16591)", "sequence (P16591 whole entry, looked up)": "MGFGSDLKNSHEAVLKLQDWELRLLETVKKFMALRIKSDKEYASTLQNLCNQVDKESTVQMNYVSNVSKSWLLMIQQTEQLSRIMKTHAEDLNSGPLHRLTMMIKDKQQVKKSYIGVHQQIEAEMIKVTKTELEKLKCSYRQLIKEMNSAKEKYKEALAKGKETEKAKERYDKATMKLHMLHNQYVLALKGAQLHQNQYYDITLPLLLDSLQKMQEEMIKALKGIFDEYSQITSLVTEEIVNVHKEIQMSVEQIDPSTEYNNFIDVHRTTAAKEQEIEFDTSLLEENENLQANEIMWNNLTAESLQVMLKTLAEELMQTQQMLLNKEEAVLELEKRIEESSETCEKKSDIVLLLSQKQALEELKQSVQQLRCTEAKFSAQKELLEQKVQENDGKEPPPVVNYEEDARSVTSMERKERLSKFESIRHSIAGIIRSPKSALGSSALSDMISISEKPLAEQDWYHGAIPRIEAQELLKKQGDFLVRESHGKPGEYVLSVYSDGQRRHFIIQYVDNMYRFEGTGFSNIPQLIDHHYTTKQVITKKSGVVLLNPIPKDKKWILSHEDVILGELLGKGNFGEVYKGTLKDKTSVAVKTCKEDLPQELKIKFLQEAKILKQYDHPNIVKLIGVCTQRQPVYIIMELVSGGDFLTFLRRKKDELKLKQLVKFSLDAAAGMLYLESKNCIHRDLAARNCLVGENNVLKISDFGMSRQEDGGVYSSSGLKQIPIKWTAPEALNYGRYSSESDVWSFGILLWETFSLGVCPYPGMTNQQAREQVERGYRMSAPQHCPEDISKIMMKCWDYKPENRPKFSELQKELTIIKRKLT", "assay": "Inhibition of Fer (unknown origin) at 0.49 uM relative to control"}, "[7]": {"target": "Fibroblast growth factor receptor 2 (Homo sapiens) (UniProt P21802)", "assay": "Inhibition of FGFR2 (unknown origin) at 0.49 uM relative to control"}, "[8]": {"target": "Serine/threonine-protein kinase pim-3 (Homo sapiens) (UniProt Q86V86)", "assay": "Inhibition of PIM3 (unknown origin) at 0.49 uM relative to control"}, "[9]": {"target": "Mitogen-activated protein kinase kinase kinase kinase 5 (Homo sapiens) (UniProt Q9Y4K4)", "sequence (Q9Y4K4 whole entry, looked up)": "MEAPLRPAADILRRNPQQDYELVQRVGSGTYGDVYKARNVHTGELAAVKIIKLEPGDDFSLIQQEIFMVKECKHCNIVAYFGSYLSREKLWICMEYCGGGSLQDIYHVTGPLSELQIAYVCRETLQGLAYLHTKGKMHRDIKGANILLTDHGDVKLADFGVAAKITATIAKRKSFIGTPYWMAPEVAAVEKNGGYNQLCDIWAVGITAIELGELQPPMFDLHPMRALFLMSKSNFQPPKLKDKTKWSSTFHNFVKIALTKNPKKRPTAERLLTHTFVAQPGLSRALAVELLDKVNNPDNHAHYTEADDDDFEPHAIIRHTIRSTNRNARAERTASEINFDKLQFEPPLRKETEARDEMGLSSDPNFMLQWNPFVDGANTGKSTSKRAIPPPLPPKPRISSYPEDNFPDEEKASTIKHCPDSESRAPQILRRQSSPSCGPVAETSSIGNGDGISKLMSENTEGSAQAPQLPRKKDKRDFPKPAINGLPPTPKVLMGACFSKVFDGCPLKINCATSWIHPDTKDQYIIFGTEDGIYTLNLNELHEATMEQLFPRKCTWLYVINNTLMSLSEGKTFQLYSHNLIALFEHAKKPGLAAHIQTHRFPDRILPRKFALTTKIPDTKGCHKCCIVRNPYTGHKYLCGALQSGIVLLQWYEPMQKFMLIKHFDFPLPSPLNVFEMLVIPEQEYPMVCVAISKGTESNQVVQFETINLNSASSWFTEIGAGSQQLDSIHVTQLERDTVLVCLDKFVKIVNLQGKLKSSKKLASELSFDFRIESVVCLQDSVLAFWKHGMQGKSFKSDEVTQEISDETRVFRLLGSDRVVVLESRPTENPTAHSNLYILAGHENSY", "assay": "Inhibition of KHS1 (unknown origin) at 0.49 uM relative to control"}, "[10]": {"tested_on": "Tyrosine-protein kinase ABL1 (Homo sapiens), P00519 [Q252H]", "assay": "Inhibition of Abl Q252H mutant (unknown origin) at 0.49 uM relative to control"}, "[11]": {"target": "Tyrosine-protein kinase receptor UFO (Homo sapiens) (UniProt P30530)", "assay": "Inhibition of AXL (unknown origin) at 0.49 uM relative to control"}, "[12]": {"target": "Tyrosine-protein kinase Lyn (Homo sapiens) (UniProt P07948)", "assay": "Inhibition of LYN (unknown origin) at 0.49 uM relative to control"}, "[13]": {"tested_on": "Proto-oncogene tyrosine-protein kinase receptor Ret (Homo sapiens), P07949 [M918T]", "sequence (P07949 whole entry M918T)": "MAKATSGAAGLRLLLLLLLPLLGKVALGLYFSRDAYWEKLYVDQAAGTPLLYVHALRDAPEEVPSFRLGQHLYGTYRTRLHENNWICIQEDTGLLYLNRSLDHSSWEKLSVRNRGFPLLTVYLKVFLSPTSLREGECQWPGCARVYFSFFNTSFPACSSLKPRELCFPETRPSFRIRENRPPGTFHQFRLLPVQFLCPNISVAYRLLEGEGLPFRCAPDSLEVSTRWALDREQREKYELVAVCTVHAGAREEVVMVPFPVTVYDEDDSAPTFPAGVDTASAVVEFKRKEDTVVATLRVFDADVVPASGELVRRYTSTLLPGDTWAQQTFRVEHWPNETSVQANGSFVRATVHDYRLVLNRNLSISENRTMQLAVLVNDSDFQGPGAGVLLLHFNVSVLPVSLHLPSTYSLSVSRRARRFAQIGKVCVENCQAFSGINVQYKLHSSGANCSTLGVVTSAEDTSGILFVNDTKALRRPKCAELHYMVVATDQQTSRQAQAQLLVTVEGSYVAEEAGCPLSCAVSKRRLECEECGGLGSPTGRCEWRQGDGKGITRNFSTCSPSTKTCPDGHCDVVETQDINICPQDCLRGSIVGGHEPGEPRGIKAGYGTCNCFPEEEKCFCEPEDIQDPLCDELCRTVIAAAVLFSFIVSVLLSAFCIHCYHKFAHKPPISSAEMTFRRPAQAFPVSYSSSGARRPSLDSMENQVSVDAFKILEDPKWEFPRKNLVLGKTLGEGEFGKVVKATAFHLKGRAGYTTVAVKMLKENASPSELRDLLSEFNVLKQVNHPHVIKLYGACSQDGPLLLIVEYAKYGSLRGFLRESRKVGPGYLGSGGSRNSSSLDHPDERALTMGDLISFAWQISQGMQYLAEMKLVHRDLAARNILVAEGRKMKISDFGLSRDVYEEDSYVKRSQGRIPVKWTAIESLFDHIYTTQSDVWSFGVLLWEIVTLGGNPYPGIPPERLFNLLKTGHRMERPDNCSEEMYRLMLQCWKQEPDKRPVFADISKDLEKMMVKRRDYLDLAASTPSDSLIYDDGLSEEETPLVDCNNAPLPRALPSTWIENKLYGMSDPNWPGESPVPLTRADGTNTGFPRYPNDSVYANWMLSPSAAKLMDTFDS", "assay": "Inhibition of RET M918T mutant (unknown origin) at 0.49 uM relative to control"}, "[14]": {"tested_on": "Proto-oncogene tyrosine-protein kinase receptor Ret (Homo sapiens), P07949 [Y791F]", "sequence (P07949 whole entry Y791F)": "as the sequence (P07949 whole entry M918T) above, with Y791F, T918M counted along it", "assay": "Inhibition of RET Y791F mutant (unknown origin) at 0.49 uM relative to control"}, "[15]": {"target": "Proto-oncogene tyrosine-protein kinase Src (Homo sapiens) (UniProt P12931)", "sequence (P12931 2-536 limits assumed)": "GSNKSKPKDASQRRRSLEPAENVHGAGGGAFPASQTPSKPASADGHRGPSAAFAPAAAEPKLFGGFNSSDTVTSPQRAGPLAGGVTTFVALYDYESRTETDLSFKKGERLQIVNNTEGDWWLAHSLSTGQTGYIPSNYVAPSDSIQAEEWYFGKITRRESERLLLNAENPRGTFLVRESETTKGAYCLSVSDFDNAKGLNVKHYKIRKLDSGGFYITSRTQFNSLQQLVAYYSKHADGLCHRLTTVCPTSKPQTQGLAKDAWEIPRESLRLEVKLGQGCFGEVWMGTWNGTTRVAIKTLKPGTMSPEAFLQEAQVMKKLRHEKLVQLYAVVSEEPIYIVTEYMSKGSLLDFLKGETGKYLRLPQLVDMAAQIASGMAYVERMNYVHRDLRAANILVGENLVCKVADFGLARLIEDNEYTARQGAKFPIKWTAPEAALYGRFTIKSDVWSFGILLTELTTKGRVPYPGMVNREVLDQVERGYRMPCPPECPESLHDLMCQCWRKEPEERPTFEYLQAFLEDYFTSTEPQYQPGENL", "assay": "Inhibition of SRC (unknown origin) at 0.49 uM relative to control"}, "[16]": {"target": "Protein kinase C theta type (Homo sapiens) (UniProt Q04759)", "assay": "Inhibition of PKC-theta (unknown origin) at 0.45 uM relative to control"}, "[17]": {"target": "Cyclin-dependent kinase 9 (Homo sapiens) (UniProt P50750)", "assay": "Inhibition of CDK9 (unknown origin) at 0.45 uM relative to control"}, "[18]": {"target": "Ephrin type-B receptor 2 (Homo sapiens) (UniProt P29323)", "assay": "Inhibition of EPHB2 (unknown origin) at 0.45 uM relative to control"}, "[19]": {"target": "AMP-activated protein kinase, AMPK (Homo sapiens) (UniProt P54646+O43741+P54619+Q9UGJ0+Q9Y478+Q13131+Q9UGI9)", "assay": "Inhibition of AMPK (unknown origin) at 0.45 uM relative to control"}, "[20]": {"target": "AMPK alpha2/beta1/gamma1 (Homo sapiens) (UniProt P54646+P54619+Q9Y478)", "assay": "Inhibition of AMPK-alpha2/beta1/gamma1 (unknown origin) at 0.45 uM relative to control", "assay_type": "protein-complex assay"}, "[21]": {"target": "Serine/threonine-protein kinase Chk2 (Homo sapiens) (UniProt O96017)", "assay": "Inhibition of CHK2 (unknown origin) at 0.45 uM relative to control"}, "[22]": {"target": "Dual specificity tyrosine-phosphorylation-regulated kinase 1A (Homo sapiens) (UniProt Q13627)", "assay": "Inhibition of DYRK1a (unknown origin) at 0.45 uM relative to control"}, "[23]": {"target": "Homeodomain-interacting protein kinase 4 (Homo sapiens) (UniProt Q8NE63)", "assay": "Inhibition of HIPK4 (unknown origin) at 0.45 uM relative to control"}, "[24]": {"target": "Mitogen-activated protein kinase kinase kinase kinase 5 (Homo sapiens) (UniProt Q9Y4K4)", "assay": "Inhibition of KHS1 (unknown origin) at 0.45 uM relative to control"}, "[25]": {"target": "Serine/threonine-protein kinase 10 (Homo sapiens) (UniProt O94804)", "assay": "Inhibition of LOK (unknown origin) at 0.45 uM relative to control"}, "[26]": {"target": "Leukocyte tyrosine kinase receptor (Homo sapiens) (UniProt P29376)", "assay": "Inhibition of LTK (unknown origin) at 0.45 uM relative to control"}, "[27]": {"target": "Serine/threonine-protein kinase DCLK1 (Homo sapiens) (UniProt O15075)", "assay": "Inhibition of DCAMKL1 (unknown origin) at 0.45 uM relative to control"}, "[28]": {"target": "Phosphorylase b kinase gamma catalytic chain, skeletal muscle/heart isoform (Homo sapiens) (UniProt Q16816)", "assay": "Inhibition of PhKg1 (unknown origin) at 0.45 uM relative to control"}, "[29]": {"tested_on": "Proto-oncogene tyrosine-protein kinase receptor Ret (Homo sapiens), P07949 [M918T]", "assay": "Inhibition of RET M918T mutant (unknown origin) at 0.45 uM relative to control"}, "[30]": {"target": "Proto-oncogene tyrosine-protein kinase Src (Homo sapiens) (UniProt P12931)", "assay": "Inhibition of SRC (unknown origin) at 0.45 uM relative to control"}, "[31]": {"target": "T1, Interleukin-1 receptor-associated kinase 4 (Homo sapiens) (UniProt Q9NWZ3)", "T1 sequence (whole entry)": "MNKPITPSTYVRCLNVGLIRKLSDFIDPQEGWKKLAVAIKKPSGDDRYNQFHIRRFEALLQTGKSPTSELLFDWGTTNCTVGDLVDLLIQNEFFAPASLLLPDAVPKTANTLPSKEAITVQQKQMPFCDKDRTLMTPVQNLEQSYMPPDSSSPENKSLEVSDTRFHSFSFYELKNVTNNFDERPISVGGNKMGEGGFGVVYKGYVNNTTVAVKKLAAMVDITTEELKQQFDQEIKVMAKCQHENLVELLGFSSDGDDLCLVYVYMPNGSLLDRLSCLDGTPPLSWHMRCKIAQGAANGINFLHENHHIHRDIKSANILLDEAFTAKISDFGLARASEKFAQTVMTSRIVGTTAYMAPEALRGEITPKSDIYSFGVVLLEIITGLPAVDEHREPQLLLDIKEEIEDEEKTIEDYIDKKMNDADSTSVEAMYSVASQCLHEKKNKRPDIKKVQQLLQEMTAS", "assay": "Inhibition of IRAK4 (unknown origin) at 0.45 uM relative to control"}, "Homo sapiens [32]": {"species": "Homo sapiens", "assay": "Inhibition of p70S6K (unknown origin) at 0.078 uM relative to control"}, "Homo sapiens [33]": {"species": "Homo sapiens", "assay": "Inhibition of PKA (unknown origin) at 0.078 uM relative to control"}, "[34]": {"target": "MAP kinase-activated protein kinase 2 (Homo sapiens) (UniProt P49137)", "assay": "Inhibition of MAPKAPK2 (unknown origin) at 0.078 uM relative to control"}}}
{"smiles": "Cc1[nH]nc(C2CC2)c1-c1ccc2c(NC(=O)C3CC3)noc2c1", "values": [{"measurement": "inhibition", "setting": "[1]", "result": 1, "unit": "%"}, {"measurement": "inhibition", "setting": "[2]", "result": 6.7, "unit": "%"}, {"measurement": "inhibition", "setting": "[3]", "result": 4.7, "unit": "%"}, {"measurement": "inhibition", "setting": "[4]", "result": 1.3, "unit": "%"}, {"measurement": "inhibition", "setting": "[5]", "result": 1.7, "unit": "%"}, {"measurement": "inhibition", "setting": "[6]", "result": 0.3, "unit": "%"}, {"measurement": "inhibition", "setting": "[7]", "result": -0.7, "unit": "%"}, {"measurement": "inhibition", "setting": "[8]", "result": -4, "unit": "%"}, {"measurement": "inhibition", "setting": "[9]", "result": 6.3, "unit": "%"}, {"measurement": "inhibition", "setting": "[10]", "result": 30.3, "unit": "%"}, {"measurement": "inhibition", "setting": "[11]", "result": -0.3, "unit": "%"}, {"measurement": "inhibition", "setting": "[12]", "result": 6.7, "unit": "%"}, {"measurement": "inhibition", "setting": "[13]", "result": 1, "unit": "%"}, {"measurement": "inhibition", "setting": "[14]", "result": 0, "unit": "%"}, {"measurement": "inhibition", "setting": "[15]", "result": 5, "unit": "%"}]}
{"smiles": "Cc1n[nH]c(C)c1-c1ccc2c(NC(=O)c3ccc(N4CCN(C)CC4)cc3)n[nH]c2c1", "values": [{"measurement": "inhibition", "setting": "[16]", "result": 3, "unit": "%"}, {"measurement": "inhibition", "setting": "[17]", "result": 9.3, "unit": "%"}, {"measurement": "inhibition", "setting": "[18]", "result": 6.7, "unit": "%"}, {"measurement": "inhibition", "setting": "[19]", "result": 26, "unit": "%"}, {"measurement": "inhibition", "setting": "[20]", "result": 26, "unit": "%"}, {"measurement": "inhibition", "setting": "[21]", "result": 3, "unit": "%"}, {"measurement": "inhibition", "setting": "[22]", "result": 6.3, "unit": "%"}, {"measurement": "inhibition", "setting": "[23]", "result": 1.3, "unit": "%"}, {"measurement": "inhibition", "setting": "[24]", "result": 85, "unit": "%"}, {"measurement": "inhibition", "setting": "[25]", "result": 9.3, "unit": "%"}, {"measurement": "inhibition", "setting": "[26]", "result": 0, "unit": "%"}, {"measurement": "inhibition", "setting": "[27]", "result": 0, "unit": "%"}, {"measurement": "inhibition", "setting": "[28]", "result": 0.7, "unit": "%"}, {"measurement": "inhibition", "setting": "[29]", "result": 57.7, "unit": "%"}, {"measurement": "inhibition", "setting": "[30]", "result": 51.7, "unit": "%"}, {"measurement": "inhibition", "setting": "[31]", "result": 11, "unit": "%"}]}
{"smiles": "COC(=O)Nc1noc2cc(-c3c(-c4ccccn4)n[nH]c3C)ccc12", "values": [{"measurement": "inhibition", "setting": "Homo sapiens [32]", "result": 4, "unit": "%"}, {"measurement": "inhibition", "setting": "Homo sapiens [33]", "result": -2.3, "unit": "%"}, {"measurement": "inhibition", "setting": "[34]", "result": 4.7, "unit": "%"}]}
